According to patent publication US7713988B2, “4,5-diphenyl-pyrimidinylamino substituted carboxylic acids, method for the production and use thereof as medicaments” (Sanofi-Aventis, priority 2006, dated 2010):

These compounds were tested against T1, GPCR GPR40 (Homo sapiens, UniProt O14842) (assay: In vitro FLIPR assay with recombinant cells which express the GPCR GPR40 (intracellular Ca2+ change)). Conditions: 100 μM test substance; recombinant HEK293 cells expressing GPR40; relative to control (0%: no test substance; 100%: 10 μM reference agonist linoleic acid).
T1 construct: expressed in transfected cells; host or cells: HEK293
T1 sequence (O14842 whole entry): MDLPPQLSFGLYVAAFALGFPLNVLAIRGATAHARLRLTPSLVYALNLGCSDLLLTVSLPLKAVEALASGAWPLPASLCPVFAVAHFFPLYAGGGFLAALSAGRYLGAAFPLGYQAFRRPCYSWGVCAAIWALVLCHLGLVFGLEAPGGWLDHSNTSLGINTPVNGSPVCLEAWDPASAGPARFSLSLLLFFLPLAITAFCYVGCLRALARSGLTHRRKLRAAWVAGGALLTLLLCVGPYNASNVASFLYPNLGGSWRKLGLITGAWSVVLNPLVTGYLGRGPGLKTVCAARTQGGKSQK
Format: cell-based
Experimental: In vitro FLIPR assay with recombinant cells which express the GPCR GPR40 Function-testing assays were carried out by means of the FLIPR technique (“Fluorescence Imaging Plate Reader”, Molecular Devices Corp.). For this purpose, agonist-induced changes in the intracellular concentration of Ca^2+ in recombinant HEK293 cells which expressed the GPCR GPR40 were determined.
For the investigations, cells were seeded in 96-well microtiter plates (60 000 cells/well) and allowed to grow overnight. The medium was removed and the cells were incubated in buffer which contained the fluorescent dye fluo-4. After this loading with dye, the cells were washed, test substance was added, and changes in the intracellular Ca^2+ concentration were measured in the FLIPR instrument. Results have been presented as percentage change relative to the control (0%: no test substance added; 100%:10 μM reference agonist linoleic acid added).

Compound	% activation @ 100 μM [%]
O=C(O)C(F)(F)F.O=C(O)CCCCCNc1ncc(-c2ccccc2)c(-c2ccccc2)n1 [Example 5, 6-(4,5-Diphenylpyrimidin-2-ylamino)hexanoic acid trifluoroacetate]	73
O=C(O)C1CCC(CNc2ncc(-c3ccccc3)c(-c3ccccc3)n2)CC1 (stereo not shown) [Example 1, 4-[(4,5-Diphenylpyrimidin-2-ylamino)methyl]cyclohexanecarboxylic acid]	79
O=C(O)C(F)(F)F.O=C(O)CCCCCCNc1ncc(-c2ccccc2)c(-c2ccccc2)n1 [Example 4, 7-(4,5-Diphenylpyrimidin-2-ylamino)heptanoic Acid Trifluoroacetate]	94
O=C(O)C(F)(F)F.O=C(O)CCCCCCCNc1ncc(-c2ccccc2)c(-c2ccccc2)n1 [Example 3, 8-(4,5-Diphenylpyrimidin-2-ylamino)octanoic Acid Trifluoroacetate]	104
